Source: the supplement of paper PMC10307832

Assays:
Assay in all cases: relative viability (nuclei count vs DMSO), 5 days (fraction); higher = more cells survive
Cediranib + Vorinostat = compound: COc1cc2c(Oc3ccc4[nH]c(C)cc4c3F)ncnc2cc1OCCCN1CCCC1 [Cediranib] + O=C(CCCCCCC(=O)Nc1ccccc1)NO [Vorinostat] (partner 1 µM)
Procedure, shortened: (§1)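 Lung cancer cell lines were pin-tool dosed in 1536-well plates on the day after seeding, with either a lone drug or a fixed anchor-drug dose plus five library-drug doses (not always all listed) in √10 steps. Nuclei were counted on 4× images after 5 days. Relative viability is the ratio of treated-well to vehicle-well nuclei counts, with each value a median of duplicate plates.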

Cediranib + Linsitinib = compound: COc1cc2c(Oc3ccc4[nH]c(C)cc4c3F)ncnc2cc1OCCCN1CCCC1 [Cediranib] + C[C@]1(O)C[C@@H](c2nc(-c3ccc4ccc(-c5ccccc5)nc4c3)c3c(N)nccn32)C1 [Linsitinib] (partner 1 µM)
Procedure, shortened: as §1

[1] = compound: O=C(C[C@H]1NCCC[C@@H]1O)Cn1cnc2cc(Br)c(Cl)cc2c1=O (racemic) [Halofuginone] + CCNC(=O)c1noc(-c2cc(C(C)C)c(O)cc2O)c1-c1ccc(CN2CCOCC2)cc1 [Luminespib] (partner 0.01 µM)
Procedure, shortened: as §1

Cediranib + Tozasertib = compound: COc1cc2c(Oc3ccc4[nH]c(C)cc4c3F)ncnc2cc1OCCCN1CCCC1 [Cediranib] + Cc1cc(Nc2cc(N3CCN(C)CC3)nc(Sc3ccc(NC(=O)C4CC4)cc3)n2)n[nH]1 [Tozasertib] (partner 0.1 µM)
Procedure, shortened: as §1

Row | Cell Line | relative viability (Cediranib + Vorinostat; first compound 0.04 µM) | relative viability (Cediranib + Vorinostat; first compound 0.1265 µM) | relative viability (Cediranib + Vorinostat; first compound 0.4 µM) | relative viability (Cediranib + Vorinostat; first compound 1.265 µM) | relative viability (Cediranib + Vorinostat; first compound 4 µM) | relative viability (Cediranib + Linsitinib; first compound 0.04 µM) | relative viability (Cediranib + Linsitinib; first compound 0.1265 µM) | relative viability (Cediranib + Linsitinib; first compound 0.4 µM) | relative viability (Cediranib + Linsitinib; first compound 1.265 µM) | relative viability (Cediranib + Linsitinib; first compound 4 µM) | relative viability ([1]; first compound 0.001 µM) | relative viability ([1]; first compound 0.003162 µM) | relative viability ([1]; first compound 0.01 µM) | relative viability ([1]; first compound 0.03162 µM) | relative viability ([1]; first compound 0.1 µM) | relative viability (Cediranib + Tozasertib; first compound 0.04 µM) | relative viability (Cediranib + Tozasertib; first compound 0.1265 µM) | relative viability (Cediranib + Tozasertib; first compound 0.4 µM) | relative viability (Cediranib + Tozasertib; first compound 1.265 µM) | relative viability (Cediranib + Tozasertib; first compound 4 µM)
1 | LK-2 | 0.352 | 0.332 | 0.421 | 0.353 | 0.279 | 0.944 | 0.492 | 0.651 | 0.548 | 0.51 | 0.152 | 0.147 | 0.181 | 0.205 | 0.179 | 0.195 | 0.156 | 0.175 | 0.194 | 0.162
2 | HCC-827 | 0.847 | 0.574 | 0.846 | 0.729 | 1.12 | 1.02 | – | 0.945 | 0.949 | 0.991 | 0.453 | 0.473 | 0.478 | 0.705 | 0.504 | 0.529 | – | 0.407 | 0.414 | 0.351
3 | NCI-H1993 | – | 0.633 | 0.727 | 0.567 | 0.688 | 0.774 | 0.751 | 0.701 | 0.648 | 0.818 | 1 | 1.05 | 0.699 | 0.863 | 0.682 | 0.607 | 0.586 | 0.596 | 0.565 | 0.734
4 | NCI-H647 | 0.689 | 0.594 | 0.56 | 0.509 | 0.684 | 1.34 | 1.13 | 1.15 | 1.11 | 1.41 | 0.141 | 0.153 | 0.147 | 0.137 | 0.129 | 0.306 | 0.225 | 0.3 | 0.227 | 0.255
5 | NCI-H460 | 0.795 | 0.792 | 0.661 | 0.678 | 0.822 | 0.86 | 0.757 | 0.702 | 0.727 | 0.676 | 0.0339 | 0.0272 | 0.0348 | 0.0271 | 0.0193 | 0.494 | 0.391 | 0.429 | 0.603 | 0.355
6 | EMC-BAC-2 | 0.403 | – | 0.407 | 0.485 | 0.499 | 0.872 | 0.832 | 0.799 | 0.777 | 0.837 | 1.13 | 1.14 | 1.17 | 0.896 | 0.649 | 0.284 | 0.238 | 0.278 | 0.286 | 0.3
7 | NCI-H23 | 0.545 | 0.487 | 0.532 | 0.587 | 0.789 | 0.698 | – | 0.542 | 0.442 | 0.682 | 0.213 | 0.184 | 0.203 | 0.203 | 0.231 | 0.43 | – | 0.365 | 0.399 | 0.395
8 | NCI-H1793 | 0.954 | 0.679 | 0.67 | 0.49 | 0.797 | 0.903 | 0.935 | 0.747 | – | 0.968 | 0.181 | 0.191 | 0.172 | 0.211 | 0.161 | 0.414 | 0.419 | 0.347 | – | 0.329
9 | A-427 | 0.846 | – | 0.835 | 0.853 | 0.882 | 1.17 | – | 0.984 | 1.07 | 1.17 | 1.08 | 0.934 | 0.913 | 0.818 | 0.733 | 0.208 | – | 0.198 | 0.237 | 0.217
10 | ABC-1 | 1.11 | 0.821 | 1.14 | 1.13 | 1.24 | 0.656 | 0.97 | 0.799 | – | 0.786 | – | 0.793 | 0.518 | 0.225 | 0.377 | 0.161 | 0.179 | 0.186 | – | 0.191
11 | NCI-H322M | 0.876 | 1.05 | 0.818 | 0.983 | 0.871 | 1.01 | 0.997 | 0.879 | 0.856 | 1.09 | 0.944 | 0.855 | 0.915 | 0.719 | 0.318 | 0.484 | 0.564 | 0.473 | 0.424 | 0.486
12 | COR-L23 | 0.52 | 0.428 | 0.412 | 0.433 | 0.458 | 1.08 | 0.871 | 0.939 | 0.806 | 1.14 | 0.819 | 0.636 | 0.699 | 0.368 | 0.211 | 0.182 | 0.192 | 0.19 | 0.264 | 0.183
13 | NCI-H2085 | 0.832 | 0.721 | 0.746 | 0.832 | 0.769 | 1.01 | 0.941 | 0.898 | 0.872 | 0.926 | 0.41 | 0.5 | 0.48 | 0.489 | 0.377 | 0.756 | 0.877 | 0.757 | 0.836 | 0.784
14 | NCI-H2087 | 0.939 | 0.694 | 0.474 | 0.671 | 0.63 | 0.995 | 1.03 | 0.921 | 0.843 | 0.959 | 0.179 | 0.152 | 0.178 | 0.174 | 0.134 | 0.279 | 0.257 | 0.213 | 0.226 | 0.228
15 | NCI-H2126 | 0.738 | 0.578 | 0.725 | 0.614 | 0.81 | 0.769 | 0.708 | 0.683 | 0.592 | 0.722 | 0.901 | 0.92 | 0.928 | 0.914 | 0.675 | 0.84 | 0.916 | 0.77 | 0.777 | 0.773
16 | SK-LU-1 | 0.881 | 0.777 | 0.685 | 0.775 | 0.773 | 1.18 | 1.04 | 0.979 | 1.06 | 1.07 | 0.202 | 0.196 | 0.23 | 0.219 | 0.174 | 0.316 | 0.412 | 0.305 | 0.365 | 0.335
17 | LCLC-97TM1 | 0.655 | – | 0.536 | 0.707 | 1.08 | 0.192 | – | 0.175 | 0.144 | 0.28 | 0.741 | 0.801 | 0.905 | 0.791 | 0.854 | 0.217 | 0.224 | 0.191 | 0.227 | 0.229
